In ChEMBL document CHEMBL1150977, “A quantitative analysis of kinase inhibitor selectivity” (Nat Biotechnol, 2008):

Tests used:
[1] = biological target: T1, Inhibitor of nuclear factor kappa-B kinase subunit epsilon (Homo sapiens, UniProt Q14164)
T1 sequence (Q14164 whole entry): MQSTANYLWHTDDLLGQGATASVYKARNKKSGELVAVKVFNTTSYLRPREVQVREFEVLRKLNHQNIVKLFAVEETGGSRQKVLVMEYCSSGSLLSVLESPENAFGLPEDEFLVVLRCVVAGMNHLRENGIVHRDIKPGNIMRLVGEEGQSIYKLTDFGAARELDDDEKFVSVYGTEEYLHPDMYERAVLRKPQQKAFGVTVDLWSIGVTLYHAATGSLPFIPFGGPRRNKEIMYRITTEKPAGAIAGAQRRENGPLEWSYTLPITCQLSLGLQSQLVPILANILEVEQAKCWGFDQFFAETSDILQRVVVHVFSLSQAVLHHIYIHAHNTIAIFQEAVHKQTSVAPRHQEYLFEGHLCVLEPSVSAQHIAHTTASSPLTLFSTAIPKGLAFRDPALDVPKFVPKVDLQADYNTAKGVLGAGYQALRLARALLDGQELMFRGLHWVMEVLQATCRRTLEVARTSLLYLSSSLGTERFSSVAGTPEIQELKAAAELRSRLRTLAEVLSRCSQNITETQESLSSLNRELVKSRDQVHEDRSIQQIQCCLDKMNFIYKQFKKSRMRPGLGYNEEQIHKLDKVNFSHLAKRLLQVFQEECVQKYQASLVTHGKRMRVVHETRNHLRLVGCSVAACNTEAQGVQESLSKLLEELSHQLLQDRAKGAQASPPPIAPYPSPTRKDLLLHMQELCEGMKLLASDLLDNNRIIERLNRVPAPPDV

[2] = biological target: Mast/stem cell growth factor receptor Kit (Homo sapiens, UniProt P10721, V559D)
Mast/stem cell growth factor receptor Kit, sequence (P10721 26-976 V559D limits assumed): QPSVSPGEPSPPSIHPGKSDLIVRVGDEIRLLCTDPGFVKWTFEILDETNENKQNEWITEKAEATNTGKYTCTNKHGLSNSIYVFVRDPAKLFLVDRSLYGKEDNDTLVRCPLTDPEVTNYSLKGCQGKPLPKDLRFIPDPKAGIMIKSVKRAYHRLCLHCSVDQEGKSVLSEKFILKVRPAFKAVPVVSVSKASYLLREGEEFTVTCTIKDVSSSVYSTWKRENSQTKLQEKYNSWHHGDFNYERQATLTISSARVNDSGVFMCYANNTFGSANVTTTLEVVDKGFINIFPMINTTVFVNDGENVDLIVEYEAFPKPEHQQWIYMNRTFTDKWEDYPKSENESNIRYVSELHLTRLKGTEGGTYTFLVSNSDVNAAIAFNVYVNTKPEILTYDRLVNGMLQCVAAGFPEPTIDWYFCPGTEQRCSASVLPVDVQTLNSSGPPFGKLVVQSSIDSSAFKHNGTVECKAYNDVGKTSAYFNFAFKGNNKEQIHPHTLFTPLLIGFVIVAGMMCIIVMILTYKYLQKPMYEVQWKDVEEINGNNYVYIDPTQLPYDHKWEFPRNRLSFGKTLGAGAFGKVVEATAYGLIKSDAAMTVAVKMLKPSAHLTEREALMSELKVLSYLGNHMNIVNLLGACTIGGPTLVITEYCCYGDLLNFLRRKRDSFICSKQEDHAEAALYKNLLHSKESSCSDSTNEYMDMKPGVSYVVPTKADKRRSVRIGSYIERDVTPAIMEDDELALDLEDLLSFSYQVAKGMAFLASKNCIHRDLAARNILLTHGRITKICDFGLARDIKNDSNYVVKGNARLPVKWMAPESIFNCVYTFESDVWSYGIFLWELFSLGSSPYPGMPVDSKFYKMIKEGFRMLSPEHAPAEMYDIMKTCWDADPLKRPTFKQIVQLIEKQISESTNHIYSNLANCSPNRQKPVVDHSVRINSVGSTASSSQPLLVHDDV

[3] = biological target: T2, Protein kinase C epsilon type (Homo sapiens, UniProt Q02156)
T2 sequence (Q02156 whole entry): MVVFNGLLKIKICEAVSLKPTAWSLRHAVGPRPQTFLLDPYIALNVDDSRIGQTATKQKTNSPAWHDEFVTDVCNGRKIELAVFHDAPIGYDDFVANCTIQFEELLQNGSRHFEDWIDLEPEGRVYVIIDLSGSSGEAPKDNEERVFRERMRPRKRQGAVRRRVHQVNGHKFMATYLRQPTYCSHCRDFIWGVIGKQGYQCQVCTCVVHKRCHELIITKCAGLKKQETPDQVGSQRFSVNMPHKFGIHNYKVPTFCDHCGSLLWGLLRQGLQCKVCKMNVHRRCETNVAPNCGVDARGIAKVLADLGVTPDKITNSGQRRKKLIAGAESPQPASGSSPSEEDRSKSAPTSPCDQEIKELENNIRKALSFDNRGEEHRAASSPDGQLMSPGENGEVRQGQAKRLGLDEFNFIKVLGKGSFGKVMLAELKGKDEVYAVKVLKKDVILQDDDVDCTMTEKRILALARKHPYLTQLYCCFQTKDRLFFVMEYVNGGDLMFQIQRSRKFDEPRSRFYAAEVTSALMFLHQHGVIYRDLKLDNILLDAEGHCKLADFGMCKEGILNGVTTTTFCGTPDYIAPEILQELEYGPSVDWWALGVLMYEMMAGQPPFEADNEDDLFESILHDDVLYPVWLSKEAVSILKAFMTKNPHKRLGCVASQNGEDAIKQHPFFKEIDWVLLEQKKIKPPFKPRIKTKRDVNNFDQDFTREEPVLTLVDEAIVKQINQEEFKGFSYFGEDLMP

[4] = biological target: T3, cGMP-dependent protein kinase 1 (Homo sapiens, UniProt Q13976)
T3 sequence (Q13976 whole entry): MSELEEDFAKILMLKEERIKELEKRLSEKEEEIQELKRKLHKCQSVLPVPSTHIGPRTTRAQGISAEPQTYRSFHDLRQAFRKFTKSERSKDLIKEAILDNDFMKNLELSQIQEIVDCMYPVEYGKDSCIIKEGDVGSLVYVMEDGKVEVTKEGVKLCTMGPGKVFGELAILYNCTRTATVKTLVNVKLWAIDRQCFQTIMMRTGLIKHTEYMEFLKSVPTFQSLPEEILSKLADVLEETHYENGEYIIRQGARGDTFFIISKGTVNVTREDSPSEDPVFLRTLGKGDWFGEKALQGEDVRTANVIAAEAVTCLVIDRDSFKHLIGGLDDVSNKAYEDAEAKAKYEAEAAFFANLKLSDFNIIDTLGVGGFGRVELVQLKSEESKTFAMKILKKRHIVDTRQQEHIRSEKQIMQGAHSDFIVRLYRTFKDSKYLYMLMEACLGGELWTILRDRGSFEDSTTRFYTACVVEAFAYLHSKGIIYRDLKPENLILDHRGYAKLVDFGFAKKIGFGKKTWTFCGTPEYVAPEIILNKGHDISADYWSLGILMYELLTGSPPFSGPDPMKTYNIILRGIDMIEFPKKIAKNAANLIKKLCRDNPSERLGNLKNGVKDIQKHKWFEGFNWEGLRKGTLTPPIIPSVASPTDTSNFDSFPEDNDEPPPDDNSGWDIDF

Measured: Kd

COCC(=O)NC/C=C/c1ccc2ncnc(Nc3ccc(Oc4ccc(C)nc4)c(C)c3)c2c1 [CP-724714]
> 10 µM: all assays above

Nc1nc(Nc2ccc(S(N)(=O)=O)cc2)nn1C(=O)c1c(F)cccc1F [JNJ-7706621]
> 10 µM: [3] | [4]

CCOc1cc2ncc(C#N)c(Nc3ccc(F)c(Cl)c3)c2cc1NC(=O)/C=C/CN(C)C [PELITINIB]
> 10 µM: all assays above

Oc1ccc(-c2nc(-c3ccncc3)c(-c3ccc(F)cc3)[nH]2)cc1 [SB-202190]
> 10 µM: all assays above

NC(=O)c1ccc(-c2nc(-c3ccc4c(c3)OCO4)c(-c3ccccn3)[nH]2)cc1 [SB-431542]
> 10 µM: all assays above
